Reference: article PMC9299836 (eLife, 2022)

Assays:
[1] = target: T1, mGluR2 (Mus musculus, UniProt Q14BI2, A548F); experiment: Single-molecule FRET (SiMPull) of azi-CRD: population histograms and state occupancy; settings: azi-CRD, 10 μM modulator, fraction of total area;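 further: Cy3/Cy5-labelled receptor from HEK293T cell lysate captured on anti-FLAG surfaces, apparent FRET efficiency computed from donor and acceptor intensities with crosstalk correction, pooled into population histograms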
[2] = target: T1, mGluR2; experiment: smFRET of azi-CRD: cross-correlation of donor and acceptor intensities (CRD dynamics) and HMM transition density plots; settings: 0μM Glutamate + GPT/Pyruvate + 10μM BINA, N 3;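 further: single detergent-solubilized receptors captured on antibody-coated flow cells via C-terminal FLAG-tag, imaged by smFRET, donor and acceptor intensity traces from three independent biological replicates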

T1 sequence (Q14BI2 19-872 A548F): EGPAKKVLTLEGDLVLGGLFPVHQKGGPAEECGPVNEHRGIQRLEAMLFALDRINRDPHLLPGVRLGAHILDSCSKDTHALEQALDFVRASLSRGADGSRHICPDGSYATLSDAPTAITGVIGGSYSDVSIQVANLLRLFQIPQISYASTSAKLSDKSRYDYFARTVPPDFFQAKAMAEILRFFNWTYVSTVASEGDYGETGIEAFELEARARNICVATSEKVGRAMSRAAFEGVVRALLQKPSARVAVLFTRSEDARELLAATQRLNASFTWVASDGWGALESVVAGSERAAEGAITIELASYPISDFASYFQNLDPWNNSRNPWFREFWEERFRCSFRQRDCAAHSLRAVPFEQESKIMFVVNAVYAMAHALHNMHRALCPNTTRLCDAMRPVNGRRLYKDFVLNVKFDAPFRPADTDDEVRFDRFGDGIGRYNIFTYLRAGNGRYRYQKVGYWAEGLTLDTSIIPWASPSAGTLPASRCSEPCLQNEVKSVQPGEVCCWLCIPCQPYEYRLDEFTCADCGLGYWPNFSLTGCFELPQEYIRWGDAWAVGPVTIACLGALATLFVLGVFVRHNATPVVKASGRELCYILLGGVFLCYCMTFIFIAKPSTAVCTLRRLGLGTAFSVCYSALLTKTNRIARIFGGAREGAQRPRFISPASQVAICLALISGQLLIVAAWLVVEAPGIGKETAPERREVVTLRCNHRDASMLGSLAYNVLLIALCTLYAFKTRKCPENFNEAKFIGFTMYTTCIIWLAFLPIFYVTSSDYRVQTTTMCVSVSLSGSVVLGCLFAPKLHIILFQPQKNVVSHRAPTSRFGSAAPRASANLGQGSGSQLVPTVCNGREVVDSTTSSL

Mean occupancy, state 1 (inactive, FRET 0.24) ([1]; 0 μM glutamate): 0.3053
Mean occupancy, state 2 (intermediate 1, FRET 0.38) ([1]; 0 μM glutamate): 0.5199
Mean occupancy, state 3 (intermediate 2, FRET 0.70) ([1]; 0 μM glutamate): 0.1483
Mean occupancy, state 4 (active, FRET 0.87) ([1]; 0 μM glutamate): 0.02653
Mean occupancy, state 1 (inactive, FRET 0.24) ([1]; 1000 μM glutamate): 0.00296
Mean occupancy, state 2 (intermediate 1, FRET 0.38) ([1]; 1000 μM glutamate): 0.03751
Mean occupancy, state 3 (intermediate 2, FRET 0.70) ([1]; 1000 μM glutamate): 0.2179
Mean occupancy, state 4 (active, FRET 0.87) ([1]; 1000 μM glutamate): 0.7416
Cross Correlation, Mean ([2]; Time 0 s): -0.309
Cross Correlation, Mean ([2]; Time 0.05 s): -0.1732
Cross Correlation, Mean ([2]; Time 0.1 s): -0.1405
Cross Correlation, Mean ([2]; Time 0.15 s): -0.1268
Cross Correlation, Mean ([2]; Time 0.2 s): -0.1138
Cross Correlation, Mean ([2]; Time 0.25 s): -0.1079
Cross Correlation, Mean ([2]; Time 0.3 s): -0.1007
Cross Correlation, Mean ([2]; Time 0.35 s): -0.09667
Cross Correlation, Mean ([2]; Time 0.4 s): -0.08889
Cross Correlation, Mean ([2]; Time 0.45 s): -0.08933
Cross Correlation, Mean ([2]; Time 0.5 s): -0.08286
Cross Correlation, Mean ([2]; Time 0.55 s): -0.07956
Cross Correlation, Mean ([2]; Time 0.6 s): -0.07731
Cross Correlation, Mean ([2]; Time 0.65 s): -0.07407
Cross Correlation, Mean ([2]; Time 0.7 s): -0.07365
Cross Correlation, Mean ([2]; Time 0.75 s): -0.06697
Cross Correlation, Mean ([2]; Time 0.8 s): -0.06199
Cross Correlation, Mean ([2]; Time 0.85 s): -0.06042
Cross Correlation, Mean ([2]; Time 0.9 s): -0.05216
Cross Correlation, Mean ([2]; Time 0.95 s): -0.05689
Cross Correlation, Mean ([2]; Time 1 s): -0.0539
Cross Correlation, Mean ([2]; Time 1.05 s): -0.05356
Cross Correlation, Mean ([2]; Time 1.1 s): -0.0518
Cross Correlation, Mean ([2]; Time 1.15 s): -0.0477
Cross Correlation, Mean ([2]; Time 1.2 s): -0.04715
Cross Correlation, Mean ([2]; Time 1.25 s): -0.04267
Cross Correlation, Mean ([2]; Time 1.3 s): -0.04926
Cross Correlation, Mean ([2]; Time 1.35 s): -0.04133
Cross Correlation, Mean ([2]; Time 1.4 s): -0.03906
Cross Correlation, Mean ([2]; Time 1.45 s): -0.0385
Cross Correlation, Mean ([2]; Time 1.5 s): -0.035
Cross Correlation, Mean ([2]; Time 1.55 s): -0.03506
Cross Correlation, Mean ([2]; Time 1.6 s): -0.03291
Cross Correlation, Mean ([2]; Time 1.65 s): -0.03291
Cross Correlation, Mean ([2]; Time 1.7 s): -0.03331
Cross Correlation, Mean ([2]; Time 1.75 s): -0.03095
Cross Correlation, Mean ([2]; Time 1.8 s): -0.02869
Cross Correlation, Mean ([2]; Time 1.85 s): -0.03476
Cross Correlation, Mean ([2]; Time 1.9 s): -0.02485
Cross Correlation, Mean ([2]; Time 1.95 s): -0.02573
Cross Correlation, Mean ([2]; Time 2 s): -0.0316
Cross Correlation, Mean ([2]; Time 2.05 s): -0.03349
Cross Correlation, Mean ([2]; Time 2.1 s): -0.02361
Cross Correlation, Mean ([2]; Time 2.15 s): -0.02192
Cross Correlation, Mean ([2]; Time 2.2 s): -0.02164
Cross Correlation, Mean ([2]; Time 2.25 s): -0.01683
SMILES: Cc1c(OCc2cccc(-c3ccc(C(=O)O)cc3)c2)cc2c(c1C)C(=O)C(C1CCCC1)C2 (stereo not drawn) [BINA]
